A short description of test [1]: (§1) Maximum tolerated dose (MTD) of the compound. Type of test: functional. Conditions: herpes simplex virus.
Test [2] deals with Streptococcus pyogenes. The test is described as follows: Compound was tested for antimicrobial activity against Streptococcus pyogenes 77A. The format is functional, […] pyogenes.
In test [3] the test system is Staphylococcus aureus. The test is described as follows: Compound was tested for antimicrobial activity against Staphylococcus aureus 285.
In test [4] the test system is Streptococcus pyogenes. The test is described as follows: Compound was tested for antimicrobial activity against […] pyogenes 308 A. The format is functional.
Test [5] has as its system Staphylococcus aureus. As to the kind of experiment: Compound was tested for antimicrobial activity against Staphylococcus aureus SG511.
For test [6], the system named is Human alphaherpesvirus 2. As to the kind of experiment: Compound was tested for antimicrobial activity against HSV type 2. The format is functional.
Test [7] relates to Human alphaherpesvirus 1. As to the kind of experiment: Compound was tested for antimicrobial activity against HSV type 1. The format is functional.
For test [8], the system named is Staphylococcus aureus. The test is described as follows: Compound was tested for antimicrobial activity against Staphylococcus aureus 503.
In test [9] the test system is herpes simplex virus. Described as §1. Type of test: functional.

Converted amounts (≈) assume the structure as drawn. Where only a bound is given, the exact number is not on record here.

In the case of `CO[C@@H]1C[C@@H](C[C@H]2CC[C@H](C)[C@H]([C@@H](C)CO)O2)OC2(O[C@](C)([C@H]3CC[C@@](C)([C@@H]4O[C@@H]([C@H]5O[C@](CO)(OC)[C@H](C)C[C@@H]5C)C[C@@H]4C)O3)C[C@H]2C)[C@@H]1C` (stereo partly specified), the MTD in [1] turned out to be 14.5 µg/mL. Moreover, the MIC is above 100 µg/mL in test [2]; above 100 µg/mL in test [3]; above 100 µg/mL in test [4]; above 100 µg/mL in [5]; 0.5 µg/mL (≈ 0.69 µM) in test [6]; 4.94 µg/mL (≈ 6.81 µM) in test [7]. The MIC in test [8] was above 100 µg/mL.

`CO[C@@H]1C[C@@H](C[C@H]2CC[C@H](C)[C@H]([C@@H](C)CCl)O2)OC2(O[C@](C)([C@H]3CC[C@@](C)([C@@H]4O[C@@H]([C@H]5O[C@@](O)(CCl)[C@H](C)C[C@@H]5C)C[C@@H]4C)O3)C[C@H]2C)[C@@H]1C` (stereo partly specified) came in with an MTD in [9] of 14.8 µg/mL. The MIC is 0.78 µg/mL (≈ 1.04 µM) in test [2]; 0.39 µg/mL (≈ 0.521 µM) in [3]; 0.098 µg/mL (≈ 0.131 µM) in [4]; 0.39 µg/mL (≈ 0.521 µM) in [5]; below 0.02 µg/mL in [6]; 0.02 µg/mL (≈ 0.0267 µM) in [7]. The same compound showed an MIC in [8] of 0.098 µg/mL (≈ 0.131 µM).

Regarding `CO[C@@H]1C[C@@H](C[C@H]2CC[C@H](C)[C@H]([C@@H](C)CO)O2)OC2(O[C@](C)([C@H]3CC[C@@](C)([C@@H]4O[C@@H]([C@H]5O[C@](COCOCC[Si](C)(C)C)(OCOCC[Si](C)(C)C)[C@H](C)C[C@@H]5C)C[C@@H]4C)O3)C[C@H]2C)[C@@H]1C` (stereo partly specified), the MTD in test [9] was above 400 µg/mL. For the same compound, the MIC in [2] was 50 µg/mL (≈ 51.5 µM); in test [3], above 100 µg/mL; in [4], 50 µg/mL (≈ 51.5 µM); in test [5], above 100 µg/mL; in [6] it was above 400 µg/mL; in [7], above 400 µg/mL. In test [8], this compound gave an MIC above 100 µg/mL.

The compound `CO[C@@H]1C[C@@H](C[C@H]2CC[C@H](C)[C@H]([C@@H](C)CO)O2)OC2(O[C@](C)([C@H]3CC[C@@](C)([C@@H]4O[C@@H]([C@H]5O[C@](COC(=O)C(C)C)(OC)[C@H](C)C[C@@H]5C)C[C@@H]4C)O3)C[C@H]2C)[C@@H]1C` (stereo partly specified) displayed an MTD in [1] above 400 µg/mL. The MIC in [2] is above 100 µg/mL; in test [3] it was above 100 µg/mL; in test [4] it was above 100 µg/mL; in [5], above 100 µg/mL; in test [6] it was above 400 µg/mL; in test [7], above 400 µg/mL. This compound returned an MIC in test [8] above 100 µg/mL.

Take `CO[C@@H]1C[C@@H](C[C@H]2CC[C@H](C)[C@H]([C@@H](C)C(=O)O)O2)OC2(O[C@](C)([C@H]3CC[C@@](C)([C@@H]4O[C@@H]([C@H]5O[C@](CO)(OC)[C@H](C)C[C@@H]5C)C[C@@H]4C)O3)C[C@H]2C)[C@@H]1C` (stereo partly specified): in test [1], the MTD was 4.4 µg/mL. The MIC is 0.39 µg/mL (≈ 0.528 µM) in test [2]; 1.56 µg/mL (≈ 2.11 µM) in test [3]; 0.39 µg/mL (≈ 0.528 µM) in test [4]; 1.56 µg/mL (≈ 2.11 µM) in test [5]; 0.5 µg/mL (≈ 0.677 µM) in test [6]; 0.02 µg/mL (≈ 0.0271 µM) in test [7]. In addition, the MIC in test [8] stood at 1.56 µg/mL (≈ 2.11 µM).

As for `CO[C@@H]1C[C@@H](C[C@H]2CC[C@H](C)[C@H]([C@@H](C)COC(=O)C(C)C)O2)OC2(O[C@](C)([C@H]3CC[C@@](C)([C@@H]4O[C@@H]([C@H]5O[C@@](O)(CO)[C@H](C)C[C@@H]5C)C[C@@H]4C)O3)C[C@H]2C)[C@@H]1C` (stereo partly specified), the MTD in test [1] was above 400 µg/mL. Besides, the MIC is above 100 µg/mL in test [2]; above 100 µg/mL in [3]; above 100 µg/mL in test [4]; above 100 µg/mL in test [5]; above 400 µg/mL in test [6]; above 400 µg/mL in test [7]. This compound had an MIC in [8] above 100 µg/mL.

Take `CO[C@@H]1C[C@@H](C[C@H]2CC[C@H](C)[C@H]([C@@H](C)C(=O)OCOCC[Si](C)(C)C)O2)OC2(O[C@](C)([C@H]3CC[C@@](C)([C@@H]4O[C@@H]([C@H]5O[C@](COCOCC[Si](C)(C)C)(OCOCC[Si](C)(C)C)[C@H](C)C[C@@H]5C)C[C@@H]4C)O3)C[C@H]2C)[C@@H]1C` (stereo partly specified): the MTD in test [9] is above 40 µg/mL. Besides, the MIC is above 100 µg/mL in [2]; above 100 µg/mL in test [3]; above 100 µg/mL in test [4]; above 100 µg/mL in test [5]; 13.3 µg/mL (≈ 11.9 µM) in test [6]; 4.44 µg/mL (≈ 3.98 µM) in test [7]. Besides, the MIC in test [8] is above 100 µg/mL.

For `CO[C@@H]1C[C@@H](C[C@H]2CC[C@H](C)[C@H]([C@@H](C)CO)O2)OC2(O[C@](C)([C@H]3CC[C@@](C)([C@@H]4O[C@@H]([C@@H](O)[C@@H](C)C[C@@H](C)CO)C[C@@H]4C)O3)C[C@H]2C)[C@@H]1C` (stereo partly specified), the MTD in test [1] is 40 µg/mL. For the same compound, the MIC was determined as 50 µg/mL (≈ 73.2 µM) in test [2]; 3.13 µg/mL (≈ 4.58 µM) in [3]; 1.56 µg/mL (≈ 2.28 µM) in [4]; 6.25 µg/mL (≈ 9.15 µM) in test [5]; 133 µg/mL (≈ 195 µM) in [6]; 40 µg/mL (≈ 58.6 µM) in [7]. Besides, the MIC in test [8] is 1.56 µg/mL (≈ 2.28 µM).

Regarding `CO[C@@H]1C[C@@H](C[C@H]2CC[C@H](C)[C@H]([C@@H](C)CO)O2)OC2(O[C@](C)([C@H]3CC[C@@](C)([C@@H]4O[C@@H]([C@H]5O[C@@](O)(COC(=O)C(C)C)[C@H](C)C[C@@H]5C)C[C@@H]4C)O3)C[C@H]2C)[C@@H]1C` (stereo partly specified), the MIC turned out to be 12.5 µg/mL (≈ 16 µM) in test [2]; 6.25 µg/mL (≈ 8 µM) in test [3]; 3.13 µg/mL (≈ 4.01 µM) in test [4]; 12.5 µg/mL (≈ 16 µM) in test [5]; 0.49 µg/mL (≈ 0.627 µM) in [6]; 0.49 µg/mL (≈ 0.627 µM) in test [7]. In [8], the MIC was 3.13 µg/mL (≈ 4.01 µM).

In turn, `CO[C@@H]1C[C@@H](C[C@H]2CC[C@H](C)[C@H]([C@@H](C)CO)O2)OC2(O[C@](C)([C@H]3CC[C@@](C)([C@@H]4O[C@@H]([C@H]5O[C@@](O)(CO)[C@H](C)C[C@@H]5C)C[C@@H]4C)O3)C[C@H]2C)[C@@H]1C` (stereo partly specified) gave an MTD in test [1] of 14.8 µg/mL. The MIC in [2] was 1.56 µg/mL (≈ 2.19 µM); in [3], 6.25 µg/mL (≈ 8.79 µM); in test [4] it was 1.56 µg/mL (≈ 2.19 µM); in [5], above 100 µg/mL; in test [6], below 0.18 µg/mL; in test [7], below 0.18 µg/mL. Further, the MIC in [8] came to 3.13 µg/mL (≈ 4.4 µM).

The compound `CO[C@@H]1C[C@@H](C[C@H]2CC[C@H](C)[C@H]([C@@H](C)C(=O)O)O2)OC2(O[C@](C)([C@H]3CC[C@@](C)([C@@H]4O[C@@H]([C@H]5O[C@@](O)(COC(=O)C(C)C)[C@H](C)C[C@@H]5C)C[C@@H]4C)O3)C[C@H]2C)[C@@H]1C` (stereo partly specified) had an MTD in test [1] of 1.4 µg/mL. For the same compound, the MIC in test [2] was 0.049 µg/mL (≈ 0.0616 µM); in test [3], 0.39 µg/mL (≈ 0.491 µM); in test [4] it was 0.049 µg/mL (≈ 0.0616 µM); in [5] it was 0.39 µg/mL (≈ 0.491 µM); in test [6], below 0.02 µg/mL; in test [7] it was below 0.02 µg/mL. In test [8], this compound returned an MIC of 0.19 µg/mL (≈ 0.239 µM).

In test [1], `CO[C@@H]1C[C@@H](C[C@H]2CC[C@H](C)[C@H]([C@@H](C)C(=O)O)O2)OC2(O[C@](C)([C@H]3CC[C@@](C)([C@@H]4O[C@@H]([C@H]5O[C@](COC(=O)C(C)C)(OC)[C@H](C)C[C@@H]5C)C[C@@H]4C)O3)C[C@H]2C)[C@@H]1C` (stereo partly specified) had an MTD above 400 µg/mL. The MIC in test [2] is above 100 µg/mL; in [3] it was 100 µg/mL (≈ 124 µM); in [4], 25 µg/mL (≈ 30.9 µM); in test [5], above 100 µg/mL; in [6], above 400 µg/mL; in test [7], above 400 µg/mL. Further, the MIC in test [8] came out at 25 µg/mL (≈ 30.9 µM).

In [1], `CO[C@@H]1C[C@@H](C[C@H]2CC[C@H](C)[C@H]([C@@H](C)C(=O)O)O2)OC2(O[C@](C)([C@H]3CC[C@@](C)([C@@H]4O[C@@H]([C@H]5OC(=O)[C@H](C)C[C@@H]5C)C[C@@H]4C)O3)C[C@H]2C)[C@@H]1C` (stereo partly specified) showed an MTD of 40 µg/mL. Also, the MIC was 25 µg/mL (≈ 36.1 µM) in [2]; 50 µg/mL (≈ 72.2 µM) in test [3]; 25 µg/mL (≈ 36.1 µM) in test [4]; 50 µg/mL (≈ 72.2 µM) in [5]; 13.3 µg/mL (≈ 19.2 µM) in [6]; 4.44 µg/mL (≈ 6.41 µM) in test [7]. For the same compound, the MIC in [8] was 50 µg/mL (≈ 72.2 µM).

Take `CO[C@@H]1C[C@@H](C[C@H]2CC[C@H](C)[C@H]([C@@H](C)C(=O)O)O2)OC2(O[C@](C)([C@H]3CC[C@@](C)([C@@H]4O[C@@H]([C@H]5O[C@@](O)(CO)[C@H](C)C[C@@H]5C)C[C@@H]4C)O3)C[C@H]2C)[C@@H]1C` (stereo partly specified): in test [1], the MTD was determined as 1.4 µg/mL. Besides, the MIC was 0.013 µg/mL (≈ 0.0179 µM) in [2]; 0.098 µg/mL (≈ 0.135 µM) in [3]; 0.025 µg/mL (≈ 0.0345 µM) in test [4]; 0.098 µg/mL (≈ 0.135 µM) in test [5]; 0.05 µg/mL (≈ 0.069 µM) in test [6]; below 0.02 µg/mL in test [7]. In test [8], this compound yielded an MIC of 0.098 µg/mL (≈ 0.135 µM).

The record behind these values is ChEMBL document CHEMBL1126264, “Secondary metabolites by chemical screening. 17. Nigericinol derivatives: synthesis, biological activities, and modeling studies” (1992).
